Experimental data published in US20240109903A1, “SUBSTITUTED HETEROCYCLES FOR TREATING CANCER” (Northwestern University, priority 2022, published 2024).

Columns and labels:
Type in all cases: cell-based
[1] = test system: CCRF-CEM; assay: NCI 60 five-dose screen CCRF-CEM; conditions: Homo sapiens, five-dose; for CC50: read-out: LC50 (the source's name)
[2] = test system: NCI-H23; assay: NCI 60 five-dose screen NCI-H23; conditions: Homo sapiens, five-dose; for CC50: read-out: LC50 (the source's name) (converted)
[3] = test system: COLO 205; assay: NCI 60 five-dose screen COLO 205; conditions: Homo sapiens, five-dose; for CC50: read-out: LC50 (the source's name) (converted)
[4] = test system: HCC-2998; assay: NCI 60 five-dose screen HCC-2998; conditions: Homo sapiens, five-dose; for CC50: read-out: LC50 (the source's name) (converted)
[5] = test system: KM12; assay: NCI 60 five-dose screen KM12; conditions: Homo sapiens, five-dose; for CC50: read-out: LC50 (the source's name) (converted)
[6] = test system: LOX IMVI; assay: NCI 60 five-dose screen LOX IMVI; conditions: Homo sapiens, five-dose; for CC50: read-out: LC50 (the source's name) (converted)
[7] = test system: SK-MEL-2; assay: NCI 60 five-dose screen SK-MEL-2; conditions: Homo sapiens, five-dose; for CC50: read-out: LC50 (the source's name) (converted)
[8] = test system: UACC-257; assay: NCI 60 five-dose screen UACC-257; conditions: Homo sapiens, five-dose; for CC50: read-out: LC50 (the source's name) (converted)
[9] = test system: UACC-62; assay: NCI 60 five-dose screen UACC-62; conditions: Homo sapiens, five-dose; for CC50: read-out: LC50 (the source's name) (converted)
[10] = test system: OVCAR-8; assay: NCI 60 five-dose screen OVCAR-8; conditions: Homo sapiens, five-dose; for CC50: read-out: LC50 (the source's name) (converted)
[11] = test system: NCI/ADR-RES; assay: NCI 60 five-dose screen NCI/ADR-RES; conditions: Homo sapiens, five-dose; for CC50: read-out: LC50 (the source's name) (converted)
[12] = test system: SK-OV-3; assay: NCI 60 five-dose screen SK-OV-3; conditions: Homo sapiens, five-dose; for CC50: read-out: LC50 (the source's name) (converted)
[13] = test system: A498; assay: NCI 60 five-dose screen A498; conditions: Homo sapiens, five-dose; for CC50: read-out: LC50 (the source's name) (converted)
[14] = test system: SN12C; assay: NCI 60 five-dose screen SN12C; conditions: Homo sapiens, five-dose; for CC50: read-out: LC50 (the source's name) (converted)
[15] = test system: UO-31; assay: NCI 60 five-dose screen UO-31; conditions: Homo sapiens, five-dose; for CC50: read-out: LC50 (the source's name) (converted)
[16] = test system: DU-145; assay: NCI 60 five-dose screen DU-145; conditions: Homo sapiens, five-dose; for CC50: read-out: LC50 (the source's name) (converted)
[17] = test system: BT-549; assay: NCI 60 five-dose screen BT-549; conditions: Homo sapiens, five-dose; for CC50: read-out: LC50 (the source's name) (converted)
[18] = test system: MDA-MB-468; assay: NCI 60 five-dose screen MDA-MB-468; conditions: Homo sapiens, five-dose; for CC50: read-out: LC50 (the source's name) (converted)

FC(F)(F)c1cc2c(Cl)ncnc2n1CCC1CCOCC1 [NUCC-0226674] gave a GI50 [1] of 1.41 µM, an IC50 [1] of 2.51 µM and an IC (TGI) [1] of 4.57 µM. For the same molecule, the CC50 [1] was ≥ 100 µM, the GI50 [2] was 2.57 µM and the IC50 [2] was 4.9 µM. The IC (TGI) [2] was 10 µM, the CC50 [2] was 34.7 µM and the GI50 [3] was 16.2 µM. For the same molecule, the IC50 [3] was 30.2 µM, the IC (TGI) [3] was 37.2 µM and the CC50 [3] was 85.1 µM. The GI50 [4] was 1.62 µM, the IC50 [4] was 2.95 µM and the IC (TGI) [4] was 3.02 µM. It also gave a CC50 [4] of 5.62 µM, a GI50 [5] of 16.2 µM and an IC50 [5] of 28.2 µM. It also gave an IC (TGI) [5] of 33.9 µM, a CC50 [5] of 70.8 µM and a GI50 [6] of 1.62 µM. The IC50 [6] was 2.88 µM, the IC (TGI) [6] was 3.02 µM and the CC50 [6] was 5.5 µM. It also gave a GI50 [7] of 13.2 µM, an IC50 [7] of 29.5 µM and an IC (TGI) [7] of 28.2 µM. The CC50 [7] was 60.3 µM, the GI50 [8] was 3.55 µM and the IC50 [8] was 9.33 µM. The IC (TGI) [8] was 15.5 µM, the CC50 [8] was 52.5 µM and the GI50 [9] was 4.27 µM. The IC50 [9] was 8.13 µM, the IC (TGI) [9] was 15.8 µM and the CC50 [9] was 40.7 µM. It also gave a GI50 [10] of 2.45 µM, an IC50 [10] of 3.63 µM and an IC (TGI) [10] of 7.41 µM. It also gave a CC50 [10] of 63.1 µM, a GI50 [11] of 17 µM and an IC50 [11] of 30.9 µM. It also gave an IC (TGI) [11] of 35.5 µM, a CC50 [11] of 72.4 µM and a GI50 [12] of 17.4 µM. The IC50 [12] was 33.1 µM, the IC (TGI) [12] was 33.1 µM and the CC50 [12] was 64.6 µM. For the same molecule, the GI50 [13] was 16.2 µM, the IC50 [13] was 30.9 µM and the IC (TGI) [13] was 30.2 µM. It also gave a CC50 [13] of 55 µM, a GI50 [14] of 6.61 µM and an IC50 [14] of 12.6 µM. The IC (TGI) [14] was 20 µM, the CC50 [14] was 46.8 µM and the GI50 [15] was 1.78 µM. For the same molecule, the IC50 [15] was 3.39 µM, the IC (TGI) [15] was 3.8 µM and the CC50 [15] was 7.94 µM. For the same molecule, the GI50 [16] was 4.37 µM, the IC50 [16] was 7.24 µM and the IC (TGI) [16] was 15.1 µM. The CC50 [16] was 39.8 µM, the GI50 [17] was 10.2 µM and the IC50 [17] was 23.4 µM. For the same molecule, the IC (TGI) [17] was 22.4 µM, the CC50 [17] was 50.1 µM and the GI50 [18] was 1.66 µM. It also gave an IC50 [18] of 3.8 µM, an IC (TGI) [18] of 3.47 µM and a CC50 [18] of 7.24 µM.

FC(F)(F)c1cc2c(Cl)ncnc2n1CCN1CCCCC1 [NUCC-0226679] was tested, and the GI50 [1] was 11 µM, the IC50 [1] was 74.1 µM and the IC (TGI) [1] was 100 µM. The CC50 [1] was ≥ 100 µM, the GI50 [2] was 13.8 µM and the IC50 [2] was 28.2 µM. The IC (TGI) [2] was 38.9 µM, the CC50 [2] was ≥ 100 µM and the GI50 [3] was 52.5 µM. The IC50 [3] was 100 µM, the IC (TGI) [3] was 100 µM and the CC50 [3] was ≥ 100 µM. It also gave a GI50 [4] of 4.07 µM, an IC50 [4] of 8.32 µM and an IC (TGI) [4] of 14.5 µM. For the same molecule, the CC50 [4] was 40.7 µM, the GI50 [5] was 29.5 µM and the IC50 [5] was 41.7 µM. The IC (TGI) [5] was 100 µM, the CC50 [5] was ≥ 100 µM and the GI50 [6] was 1.7 µM. For the same molecule, the IC50 [6] was 2.95 µM, the IC (TGI) [6] was 3.09 µM and the CC50 [6] was 5.75 µM. The GI50 [7] was 16.6 µM, the IC50 [7] was 33.9 µM and the IC (TGI) [7] was 33.1 µM. It also gave a CC50 [7] of 66.1 µM, a GI50 [8] of 11.7 µM and an IC50 [8] of 25.1 µM. It also gave an IC (TGI) [8] of 30.2 µM, a CC50 [8] of 77.6 µM and a GI50 [9] of 12 µM. It also gave an IC50 [9] of 22.4 µM, an IC (TGI) [9] of 30.2 µM and a CC50 [9] of 75.9 µM. For the same molecule, the GI50 [10] was 12.6 µM, the IC50 [10] was 20.4 µM and the IC (TGI) [10] was 33.1 µM. For the same molecule, the CC50 [10] was 87.1 µM, the GI50 [11] was 24 µM and the IC50 [11] was 42.7 µM. The IC (TGI) [11] was 64.6 µM, the CC50 [11] was ≥ 100 µM and the GI50 [12] was 52.5 µM. For the same molecule, the IC50 [12] was 100 µM, the IC (TGI) [12] was 100 µM and the CC50 [12] was ≥ 100 µM. It also gave a GI50 [13] of 100 µM, an IC50 [13] of 100 µM and an IC (TGI) [13] of 100 µM. The CC50 [13] was ≥ 100 µM, the GI50 [14] was 19.5 µM and the IC50 [14] was 34.7 µM. The IC (TGI) [14] was 100 µM, the CC50 [14] was ≥ 100 µM and the GI50 [15] was 1.74 µM. The IC50 [15] was 3.31 µM, the IC (TGI) [15] was 3.55 µM and the CC50 [15] was 7.41 µM. For the same molecule, the GI50 [16] was 30.2 µM, the IC50 [16] was 50.1 µM and the IC (TGI) [16] was 100 µM. For the same molecule, the CC50 [16] was ≥ 100 µM, the GI50 [17] was 15.1 µM and the IC50 [17] was 30.2 µM. It also gave an IC (TGI) [17] of 29.5 µM, a CC50 [17] of 58.9 µM and a GI50 [18] of 3.02 µM. It also gave an IC50 [18] of 18.2 µM, an IC (TGI) [18] of 9.33 µM and a CC50 [18] of 38.9 µM.
